# Experimental data: ChEMBL document CHEMBL3885881, “DrugMatrix”
# Species on record: Rattus norvegicus
# Assay: DrugMatrix - Regimen: Daily Repeat
# Assay type: toxicity, organism-based, Sprague-Dawley
# Design: regimen Daily Repeat, gender Male, age 6-8 weeks
# Conditions: in vivo, po, route oral GAVAGE, vehicle 100 % SALINE; for ABSOLUTE BASOPHIL / ABSOLUTE EOSINOPHIL / ABSOLUTE LYMPHOCYTE / ABSOLUTE MONOCYTE / ABSOLUTE SEGMENTED NEUTROPHIL / BASOPHIL / EOSINOPHIL / ERYTHROCYTE COUNT / HEMATOCRIT / HEMOGLOBIN / LEUKOCYTE COUNT / LYMPHOCYTE / MEAN CORPUSCULAR HEMOGLOBIN / MEAN CORPUSCULAR HEMOGLOBIN CONCENTRATION / MEAN CORPUSCULAR VOLUME / MONOCYTE / NEUTROPHIL / NUCLEATED RED BLOOD CELLS / PLATELET COUNT: tissue Blood; for ALANINE AMINOTRANSFERASE / ALBUMIN / ALKALINE PHOSPHATASE / ASPARTATE AMINOTRANSFERASE / BLOOD UREA NITROGEN / CARBON DIOXIDE / CHLORIDE / CHOLESTEROL / CREATINE PHOSPHOKINASE / CREATININE / GLUCOSE / LACTATE DEHYDROGENASE / LIPASE / PHOSPHORUS / POTASSIUM / SODIUM / TOTAL BILIRUBIN / TOTAL PROTEIN / URIC ACID: tissue Plasma
# [1] = 0 mg/kg, 72 h, dose level Control, time 3 day
# [2] = 0 mg/kg, […], dose level Control, time 7 day
# [3] = 10 mg/kg, 72 h, dose level Low, time 3 day
compound,measurement,setting,value
O=[As][O-].[Na+] [SODIUM ARSENITE],ABSOLUTE BASOPHIL,[1],0 CELLS/uL
same,ABSOLUTE EOSINOPHIL,[1],66 CELLS/uL
same,ABSOLUTE LYMPHOCYTE,[1],11922.83 CELLS/uL
same,ABSOLUTE MONOCYTE,[1],401.5 CELLS/uL
same,ABSOLUTE SEGMENTED NEUTROPHIL,[1],1526.33 CELLS/uL
same,BASOPHIL,[1],0%
same,EOSINOPHIL,[1],0.5%
same,ERYTHROCYTE COUNT,[1],5.62 x10E6/uL
same,HEMATOCRIT,[1],37.17%
same,HEMOGLOBIN,[1],13.53 G/DL
same,LEUKOCYTE COUNT,[1],13.92 x10E3/uL
same,LYMPHOCYTE,[1],86.17%
same,MEAN CORPUSCULAR HEMOGLOBIN,[1],24.07 pg
same,MEAN CORPUSCULAR HEMOGLOBIN CONCENTRATION,[1],36.42 G/DL
same,MEAN CORPUSCULAR VOLUME,[1],66.1 fL
same,MONOCYTE,[1],3%
same,NEUTROPHIL,[1],10.33%
same,NUCLEATED RED BLOOD CELLS,[1],0 /100WBC
same,PLATELET COUNT,[1],1107 x10E3/uL
same,ALANINE AMINOTRANSFERASE,[1],45.33 u/L
same,ALBUMIN,[1],4.3 G/DL
same,ALKALINE PHOSPHATASE,[1],321.33 u/L
same,ASPARTATE AMINOTRANSFERASE,[1],77.33 u/L
same,BLOOD UREA NITROGEN,[1],14.33 mg/dL
same,CARBON DIOXIDE,[1],32.33 mmol/L
same,CHLORIDE,[1],99.67 MEQ/L
same,CHOLESTEROL,[1],82.33 mg/dL
same,CREATINE PHOSPHOKINASE,[1],205.5 u/L
same,CREATININE,[1],0.19 mg/dL
same,GLUCOSE,[1],150.83 mg/dL
same,LACTATE DEHYDROGENASE,[1],88.17 u/L
same,LIPASE,[1],10.83 u/L
same,PHOSPHORUS,[1],10.9 mg/dL
same,POTASSIUM,[1],5.83 MEQ/L
same,SODIUM,[1],145.15 MEQ/L
same,TOTAL BILIRUBIN,[1],0.12 mg/dL
same,TOTAL PROTEIN,[1],6.22 G/DL
same,URIC ACID,[1],1 mg/dL
same,ABSOLUTE BASOPHIL,[2],0 CELLS/uL
same,ABSOLUTE EOSINOPHIL,[2],22 CELLS/uL
same,ABSOLUTE LYMPHOCYTE,[2],11105.17 CELLS/uL
same,ABSOLUTE MONOCYTE,[2],258.17 CELLS/uL
same,ABSOLUTE SEGMENTED NEUTROPHIL,[2],881.33 CELLS/uL
same,BASOPHIL,[2],0%
same,EOSINOPHIL,[2],0.17%
same,ERYTHROCYTE COUNT,[2],5.29 x10E6/uL
same,HEMATOCRIT,[2],34.03%
same,HEMOGLOBIN,[2],13.67 G/DL
same,LEUKOCYTE COUNT,[2],12.27 x10E3/uL
same,LYMPHOCYTE,[2],90.83%
same,MEAN CORPUSCULAR HEMOGLOBIN,[2],25.9 pg
same,MEAN CORPUSCULAR HEMOGLOBIN CONCENTRATION,[2],40.18 G/DL
same,MEAN CORPUSCULAR VOLUME,[2],64.42 fL
same,MONOCYTE,[2],2.17%
same,NEUTROPHIL,[2],6.83%
same,NUCLEATED RED BLOOD CELLS,[2],0 /100WBC
same,PLATELET COUNT,[2],1159.83 x10E3/uL
same,ALANINE AMINOTRANSFERASE,[2],45.83 u/L
same,ALBUMIN,[2],4.1 G/DL
same,ALKALINE PHOSPHATASE,[2],240 u/L
same,ASPARTATE AMINOTRANSFERASE,[2],88.67 u/L
same,BLOOD UREA NITROGEN,[2],13.67 mg/dL
same,CARBON DIOXIDE,[2],31.83 mmol/L
same,CHLORIDE,[2],96.83 MEQ/L
same,CHOLESTEROL,[2],71.17 mg/dL
same,CREATINE PHOSPHOKINASE,[2],202.5 u/L
same,CREATININE,[2],0.22 mg/dL
same,GLUCOSE,[2],132.67 mg/dL
same,LACTATE DEHYDROGENASE,[2],107.17 u/L
same,LIPASE,[2],10.5 u/L
same,PHOSPHORUS,[2],10.47 mg/dL
same,POTASSIUM,[2],6.23 MEQ/L
same,SODIUM,[2],140.73 MEQ/L
same,TOTAL BILIRUBIN,[2],0.12 mg/dL
same,TOTAL PROTEIN,[2],6.18 G/DL
same,URIC ACID,[2],0.87 mg/dL
same,ABSOLUTE BASOPHIL,[3],0 CELLS/uL
same,ABSOLUTE EOSINOPHIL,[3],54.67 CELLS/uL
same,ABSOLUTE LYMPHOCYTE,[3],10489.83 CELLS/uL
same,ABSOLUTE MONOCYTE,[3],135 CELLS/uL
same,ABSOLUTE SEGMENTED NEUTROPHIL,[3],1470.5 CELLS/uL
same,BASOPHIL,[3],0%
same,EOSINOPHIL,[3],0.5%
same,ERYTHROCYTE COUNT,[3],5.25 x10E6/uL
same,HEMATOCRIT,[3],34.42%
same,HEMOGLOBIN,[3],12.32 G/DL
same,LEUKOCYTE COUNT,[3],12.15 x10E3/uL
same,LYMPHOCYTE,[3],86.33%
same,MEAN CORPUSCULAR HEMOGLOBIN,[3],23.48 pg
same,MEAN CORPUSCULAR HEMOGLOBIN CONCENTRATION,[3],35.82 G/DL
same,MEAN CORPUSCULAR VOLUME,[3],65.58 fL
same,MONOCYTE,[3],1.17%
same,NEUTROPHIL,[3],12%
same,NUCLEATED RED BLOOD CELLS,[3],0.17 /100WBC
same,PLATELET COUNT,[3],1089.17 x10E3/uL
same,ALANINE AMINOTRANSFERASE,[3],43.5 u/L
same,ALBUMIN,[3],4.08 G/DL
same,ALKALINE PHOSPHATASE,[3],226.5 u/L
same,ASPARTATE AMINOTRANSFERASE,[3],76.83 u/L
same,BLOOD UREA NITROGEN,[3],10.5 mg/dL
same,CARBON DIOXIDE,[3],25.83 mmol/L
same,CHLORIDE,[3],100.17 MEQ/L
same,CHOLESTEROL,[3],72 mg/dL
same,CREATINE PHOSPHOKINASE,[3],296.17 u/L
same,CREATININE,[3],0.2 mg/dL
same,GLUCOSE,[3],151.5 mg/dL
same,LACTATE DEHYDROGENASE,[3],177.33 u/L
same,LIPASE,[3],10.33 u/L
same,PHOSPHORUS,[3],11.43 mg/dL
same,POTASSIUM,[3],5.33 MEQ/L
same,SODIUM,[3],142.73 MEQ/L
same,TOTAL BILIRUBIN,[3],0.15 mg/dL
same,TOTAL PROTEIN,[3],5.93 G/DL
same,URIC ACID,[3],1 mg/dL
